This test concerns the target T1, human PAD4 (Homo sapiens, UniProt Q9UM07).
T1 construct: human PAD4 (NM_012387), A2P663, was PCR amplified; His-SUMO (N, cleaved yes); made in house; host or cells: E. coli BL21(DE3)
Put plainly: In vitro PAD4 BAEE biochemical assay. Conditions: human PAD4, BAEE substrate; 5 nM PAD4, 2 mM calcium chloride, 3 mM BAEE; geometric mean of multiple experiments. The gist of the method: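 Tag-free recombinant hPAD4 (5 nM), 2 mM CaCl2, 3 mM BAEE, 50 mM MOPS pH 7.6, 2 mM DTT; 30 min compound preincubation, 2 h reaction, all 25 °C. EDTA quench; ammonia read via o-phthalaldehyde amine coupling, 1 h.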

T1 sequence (Q9UM07 2-663): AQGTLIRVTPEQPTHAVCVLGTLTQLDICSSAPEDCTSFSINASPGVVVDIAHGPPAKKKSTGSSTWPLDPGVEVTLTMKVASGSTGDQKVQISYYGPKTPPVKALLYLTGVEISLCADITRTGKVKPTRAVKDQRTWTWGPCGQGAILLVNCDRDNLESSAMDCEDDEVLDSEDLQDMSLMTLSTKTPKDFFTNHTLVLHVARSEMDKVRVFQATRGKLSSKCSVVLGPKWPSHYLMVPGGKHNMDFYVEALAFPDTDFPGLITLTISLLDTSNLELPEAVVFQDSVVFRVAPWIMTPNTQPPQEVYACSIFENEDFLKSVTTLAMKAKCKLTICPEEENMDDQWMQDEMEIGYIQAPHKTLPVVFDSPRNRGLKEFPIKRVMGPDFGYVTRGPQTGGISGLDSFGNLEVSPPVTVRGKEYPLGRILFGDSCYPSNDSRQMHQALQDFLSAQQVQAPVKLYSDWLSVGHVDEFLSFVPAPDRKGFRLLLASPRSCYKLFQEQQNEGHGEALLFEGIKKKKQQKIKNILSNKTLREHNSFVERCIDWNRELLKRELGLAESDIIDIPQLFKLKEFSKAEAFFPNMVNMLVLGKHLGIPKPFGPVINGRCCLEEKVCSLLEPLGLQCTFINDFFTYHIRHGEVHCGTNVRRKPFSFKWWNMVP

With `COc1cc(C(=O)N2[C@H]3CC[C@@H]2[C@H](N)C3)cc2nc(-c3cc4ccc(N5[C@@H](C(F)(F)F)CCCS5(=O)=O)nc4n3CC3CC3)c(C)n12` [Example 447, [(1~{R},2~{R},4~{S})-2-amino-7-azabicyclo [2.2.1]heptan-7-yl]-[2-[1-(cyclopropylmethyl)-6-[(3~{R})-1,1-dioxo-3-(trifluoromethyl)thiazinan-2-yl]pyrrolo[2,3-b]pyridin-2-yl]-5-methoxy-3-methylimidazo[1,2-a]pyridin-7-yl]methanone], the IC50 (as a rule, the concentration that gives 50% inhibition) was found to be 0.187 µM.

As for `COc1cc(C(=O)N2[C@H]3CC[C@@H]2[C@H](N)C3)cc2nc(-c3cc4ccc(N[C@@H](C)C(F)(F)F)nc4n3CC3CC3)c(C)n12` [Example 448, [(1~{R},2~{R},4~{S})-2-amino-7-azabicyclo [2.2.1]heptan-7-yl]-[2-[1-(cyclopropylmethyl)-6-[[(2~{S})-1,1,1-trifluoropropan-2-yl]amino]pyrrolo[2,3-b]pyridin-2-yl]-5-methoxy-3-methylimidazo[1,2-a]pyridin-7-yl]methanone], the IC50 stood at 6.71 µM.

Take `COc1cc(C(=O)N2[C@H]3CC[C@@H]2[C@H](N)C3)cc2nc(-c3cc4ccc(N[C@H](C)C(F)(F)F)nc4n3CC3CC3)c(C)n12` [Example 449]: the IC50 came out at 6.67 µM.

Turning to `COc1cc(C(=O)N2[C@H]3CC[C@@H]2[C@H](N)C3)cc2nc(-c3cc4ccc(N5CCNCCS5(=O)=O)nc4n3CC3CC3)c(C)n12` [Example 450, [(1~{R},2~{R},4~{S})-2-amino-7-azabicyclo [2.2.1]heptan-7-yl]-[2-[1-(cyclopropylmethyl)-6-(1,1-dioxo-1,2,5-thiadiazepan-2-yl)pyrrolo[2,3-b]pyridin-2-yl]-5-methoxy-3-methylimidazo[1,2-a]pyridin-7-yl]methanone], the IC50 was determined as 0.0216 µM.

Consider `COc1cc(C(=O)N2[C@H]3CC[C@@H]2[C@H](N)C3)cc2nc(-c3cc4ccc(N5CCOCCS5(=O)=O)nc4n3CC3CC3)c(C)n12` [Example 451, [(1~{R},2~{R},4~{S})-2-amino-7-azabicyclo [2.2.1]heptan-7-yl]-[2-[1-(cyclopropylmethyl)-6-(4,4-dioxo-1,4,5-oxathiazepan-5-yl)pyrrolo [2,3-b]pyridin-2-yl]-5-methoxy-3-methylimidazo[1,2-a]pyridin-7-yl]methanone], for which the IC50 was determined as 0.0218 µM.

With `COc1cc(C(=O)N2[C@H]3CC[C@@H]2[C@H](N)C3)cc2nc(-c3cc4ccc(N5CCCC(C(C)C)S5(=O)=O)nc4n3CC3CC3)c(C)n12` (some centres unmarked) [Example 452, [(1~{R},2~{R},4~{S})-2-amino-7-azabicyclo [2.2.1]heptan-7-yl]-[2-[1-(cyclopropylmethyl)-6-(1,1-dioxo-6-propan-2-ylthiazinan-2-yl)pyrrolo [2,3-b]pyridin-2-yl]-5-methoxy-3-methylimidazo [1,2-a]pyridin-7-yl]methanone], the IC50 came out at 0.246 µM.

As to `COc1cc(C(=O)N2[C@H]3CC[C@@H]2[C@H](N)C3)cc2nc(-c3cc4ccc(N5CC(c6ccccc6)CCS5(=O)=O)nc4n3CC3CC3)c(C)n12` (some centres unmarked) [Example 453, [(1~{R},2~{R},4~{S})-2-amino-7-azabicyclo [2.2.1]heptan-7-yl]-[2-[1-(cyclopropylmethyl)-6-(1,1-dioxo-4-phenylthiazinan-2-yl)pyrrolo[2,3-b]pyridin-2-yl]-5-methoxy-3-methylimidazo[1,2-a]pyridin-7-yl]methanone], the IC50 amounted to 9.32 µM.

On to `COc1cc(C(=O)N2[C@H]3CC[C@@H]2[C@H](N)C3)cc2nc(-c3cc4ccc(N5CCCC(C)S5(=O)=O)nc4n3CC3CC3)c(C)n12` (some centres unmarked) [Example 454, [(1~{R},2~{R},4~{S})-2-amino-7-azabicyclo [2.2.1]heptan-7-yl]-[2-[1-(cyclopropylmethyl)-6-(6-methyl-1,1-dioxothiazinan-2-yl)pyrrolo [2,3-b]pyridin-2-yl]-5-methoxy-3-methylimidazo[1,2-a]pyridin-7-yl]methanone], for which the IC50 is 0.145 µM.

The record behind these values is patent US12240862B2, “Inhibitors of peptidylarginine deiminases” (Gilead Sciences, Inc., priority 2020, dated 2025).
